We go through 22 molecules from patent US20240382483A1, “HETEROCYCLIC EGFR INHIBITORS FOR USE IN THE TREATMENT OF CANCER” (Blueprint Medicines Corporation, priority 2021, published 2024).

Molecules are shown by their SMILES. Counter-ions that a name gives are not always drawn. A value given as a limit tells only on which side of the number the result lay.

Experiment [1] concerns the target T1, EGFR (L858R T790M C797S) (Homo sapiens, UniProt P00533, C797S/L858R/T790M).
T1 construct: purchased SignalChem E10-122VG
Description: Biochemical EGFR inhibition assay (Caliper mobility shift), EGFR LRTMCS. As to conditions: LRTMCS (PH) IC50 (nM) @ 1 mM ATP (Num), EGFR LRTMCS mutant. In a few lines: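 Caliper mobility shift read-out: product and substrate peptides separated by electrophoresis and quantified. Reactions at 25° C. taken to 10–20% peptide phosphorylation, quenched with 35 mM EDTA. Apparent IC50 from percent activity vs log [compound].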

Experiment [2] concerns the target T2, intracellular phosphorylation of EGFR in NCI-H1975 cell line that harbors the EGFR L858R T790M mutations (Homo sapiens, UniProt P00533, L858R/T790M).
T2 construct: NCI-H1975 cell line that harbors the EGFR L858R T790M mutations (ATCC, CRL-5908); host or cells: NCI-H1975
Description: NCI-H1975 pEGFR AlphaLISA assay. The experiment is classed as cell-based. As to conditions: NCI-H1975 cells (EGFR L858R T790M), p-EGFR (Tyr1068), 4-5 hours incubation; read-out: Ext pEGFR H1975 GMean IC50 (nM) Protocol: @Pharmaron AlphaLISA (Num). The method, then:
On the next day, the test compounds and DMSO control were added into H1975 cell plate followed by incubation at 37C/5% CO2 for 4-5 hours. […] Then 5 μL of a donor bead mix was added to each well followed by overnight incubation at room temperature in dark. On the next day, the plate was read at a compatible plate reader to obtain pEGFR signal. Percent of pEGFR inhibition was plotted against log concentration of compounds to generate IC50 values.

T2 sequence (P00533 25-1210 T790M/L858R): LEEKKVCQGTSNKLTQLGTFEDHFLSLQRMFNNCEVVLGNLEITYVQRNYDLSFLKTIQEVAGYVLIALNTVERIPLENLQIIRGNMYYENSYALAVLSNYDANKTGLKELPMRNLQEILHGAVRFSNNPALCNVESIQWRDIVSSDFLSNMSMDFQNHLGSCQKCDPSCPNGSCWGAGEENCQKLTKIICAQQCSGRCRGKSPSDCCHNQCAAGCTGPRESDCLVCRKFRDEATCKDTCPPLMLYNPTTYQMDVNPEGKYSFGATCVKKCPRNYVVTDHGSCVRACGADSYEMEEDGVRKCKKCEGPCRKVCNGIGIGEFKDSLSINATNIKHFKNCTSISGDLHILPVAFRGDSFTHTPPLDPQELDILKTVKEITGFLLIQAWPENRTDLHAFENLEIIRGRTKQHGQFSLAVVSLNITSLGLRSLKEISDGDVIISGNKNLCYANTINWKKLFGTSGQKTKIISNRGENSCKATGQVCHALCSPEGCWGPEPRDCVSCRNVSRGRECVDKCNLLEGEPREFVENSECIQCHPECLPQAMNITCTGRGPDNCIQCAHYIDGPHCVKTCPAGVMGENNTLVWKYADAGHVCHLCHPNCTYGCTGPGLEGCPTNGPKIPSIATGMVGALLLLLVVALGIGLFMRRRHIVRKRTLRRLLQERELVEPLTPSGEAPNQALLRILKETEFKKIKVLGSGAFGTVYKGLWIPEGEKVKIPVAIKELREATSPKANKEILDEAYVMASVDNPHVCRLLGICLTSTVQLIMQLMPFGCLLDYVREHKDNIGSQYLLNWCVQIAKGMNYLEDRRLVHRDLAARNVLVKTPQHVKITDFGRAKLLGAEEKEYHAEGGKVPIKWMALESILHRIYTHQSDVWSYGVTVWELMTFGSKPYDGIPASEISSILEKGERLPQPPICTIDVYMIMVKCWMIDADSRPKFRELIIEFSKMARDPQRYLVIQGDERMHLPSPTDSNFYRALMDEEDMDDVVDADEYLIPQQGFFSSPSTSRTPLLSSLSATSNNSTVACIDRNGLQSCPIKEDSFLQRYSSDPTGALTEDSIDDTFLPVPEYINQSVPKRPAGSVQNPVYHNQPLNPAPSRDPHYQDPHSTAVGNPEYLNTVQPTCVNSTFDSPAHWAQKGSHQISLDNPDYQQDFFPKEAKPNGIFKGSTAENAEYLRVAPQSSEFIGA
T1 sequence (P00533 25-1210 T790M/C797S/L858R): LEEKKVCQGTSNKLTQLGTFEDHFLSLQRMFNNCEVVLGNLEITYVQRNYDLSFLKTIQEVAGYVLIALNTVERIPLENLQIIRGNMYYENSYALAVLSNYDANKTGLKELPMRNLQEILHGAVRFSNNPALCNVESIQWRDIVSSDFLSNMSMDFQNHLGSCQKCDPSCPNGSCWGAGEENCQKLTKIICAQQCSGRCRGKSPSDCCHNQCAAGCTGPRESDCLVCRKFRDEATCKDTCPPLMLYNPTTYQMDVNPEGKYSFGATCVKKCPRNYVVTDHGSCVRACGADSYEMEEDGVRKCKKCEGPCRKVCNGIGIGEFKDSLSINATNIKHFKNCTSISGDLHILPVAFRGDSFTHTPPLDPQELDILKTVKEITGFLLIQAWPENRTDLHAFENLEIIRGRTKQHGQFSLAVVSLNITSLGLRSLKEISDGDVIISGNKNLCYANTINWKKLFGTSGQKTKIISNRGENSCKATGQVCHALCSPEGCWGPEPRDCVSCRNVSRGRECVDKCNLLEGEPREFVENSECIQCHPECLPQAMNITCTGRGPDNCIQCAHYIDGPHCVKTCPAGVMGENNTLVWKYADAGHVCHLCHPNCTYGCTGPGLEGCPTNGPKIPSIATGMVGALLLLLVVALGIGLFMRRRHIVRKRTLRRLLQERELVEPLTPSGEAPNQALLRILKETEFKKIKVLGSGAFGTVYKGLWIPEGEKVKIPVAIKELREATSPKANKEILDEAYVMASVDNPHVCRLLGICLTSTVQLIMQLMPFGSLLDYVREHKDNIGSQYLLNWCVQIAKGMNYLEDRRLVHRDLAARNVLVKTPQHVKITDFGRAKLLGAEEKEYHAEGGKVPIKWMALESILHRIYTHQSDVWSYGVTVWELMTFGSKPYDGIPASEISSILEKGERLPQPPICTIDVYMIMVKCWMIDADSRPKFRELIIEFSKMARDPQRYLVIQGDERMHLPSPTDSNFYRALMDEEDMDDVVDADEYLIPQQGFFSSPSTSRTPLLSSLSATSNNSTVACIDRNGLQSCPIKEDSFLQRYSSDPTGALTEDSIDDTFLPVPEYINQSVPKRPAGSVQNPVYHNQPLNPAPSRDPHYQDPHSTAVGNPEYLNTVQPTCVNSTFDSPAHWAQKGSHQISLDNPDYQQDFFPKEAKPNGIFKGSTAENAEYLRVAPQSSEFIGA

What is called IC50 is the concentration that inhibits the measured activity by half. For the molecule `CC(C)c1cnc(-c2nc[nH]n2)c2cnc(Nc3ccnc(N4CC[C@@H](O)[C@@](C)(F)C4)n3)cc12` [Example 25, (3S,4R)-3-fluoro-1-(4-((5-isopropyl-8-(1H-1,2,4-triazol-3-yl)-2,7-naphthyridin-3-yl)amino)pyrimidin-2-yl)-3-methylpiperidin-4-ol], the IC50 in experiment [1] was in the range of 15 to 20 nM; in experiment [2], 30 to 50 nM.

With `Cc1nc(-c2ccc(C(C)C)c3cc(Nc4ccnc(N5CC[C@@H](O)[C@@](C)(F)C5)n4)ncc23)n[nH]1` [Example 26, (3S,4R)-3-fluoro-1-(4-((5-isopropyl-8-(5-methyl-1H-1,2,4-triazol-3-yl)isoquinolin-3-yl)amino)pyrimidin-2-yl)-3-methylpiperidin-4-ol], the results for the 50% inhibitory concentration (IC50) in experiment [1] and in experiment [2] were less than 15 nM and 30 to 50 nM, respectively.

With `CC(C)c1cnc(-c2nnc(C(C)(C)O)o2)c2cnc(Nc3ccnc(N4CC[C@@H](O)[C@@](C)(F)C4)n3)cc12` [Example 27, (3S,4R)-3-fluoro-1-(4-((8-(5-(2-hydroxypropan-2-yl)-1,3,4-oxadiazol-2-yl)-5-isopropyl-2,7-naphthyridin-3-yl)amino)pyrimidin-2-yl)-3-methylpiperidin-4-ol], the IC50 in experiment [1] was less than 15 nM; in experiment [2] it was more than 50 nM.

For the molecule `COC[C@@H]1CCN1c1ncc(C(C)C)c2cc(Nc3ccnc(N4CC[C@@H](O)[C@@](C)(F)C4)n3)ncc12` [Example 29, (3S,4R)-3-fluoro-1-(4-((5-isopropyl-8-((S)-2-(methoxymethyl)azetidin-1-yl)-2,7-naphthyridin-3-yl)amino)pyrimidin-2-yl)-3-methylpiperidin-4-ol], the IC50 in experiment [1] was less than 15 nM; in experiment [2], less than 10 nM.

As to `CC(C)c1ccc(N2CC3(CCS3(=O)=O)C2)c2cnc(Nc3ccnc(N4CC[C@@H](O)[C@@](C)(F)C4)n3)cc12` [Example 35, 6-(3-((2-((3S,4R)-3-fluoro-4-hydroxy-3-methylpiperidin-1-yl)pyrimidin-4-yl)amino)-5-isopropylisoquinolin-8-yl)-1-thia-6-azaspiro[3.3]heptane 1,1-dioxide], the concentration for half-maximal inhibition (IC50) is less than 15 nM in experiment [1] and less than 10 nM in experiment [2].

Regarding `CC(C)c1ccc(N2CC(n3ccnn3)C2)c2cnc(Nc3ccnc(N4CC[C@@H](O)[C@@](C)(F)C4)n3)cc12` [Example 38, (3S,4R)-1-(4-((8-(3-(1H-1,2,3-triazol-1-yl)azetidin-1-yl)-5-isopropylisoquinolin-3-yl)amino)pyrimidin-2-yl)-3-fluoro-3-methylpiperidin-4-ol], the IC50 in experiment [1] is less than 15 nM; in experiment [2], less than 10 nM.

Consider `CO[C@H]1CCN(c2nccc(Nc3cc4c(C(C)C)ccc(N5CC[C@H]5CN)c4cn3)n2)C[C@H]1F` [Example 39, 8-((S)-2-(aminomethyl)azetidin-1-yl)-N-(2-((3R,4S)-3-fluoro-4-methoxypiperidin-1-yl)pyrimidin-4-yl)-5-isopropylisoquinolin-3-amine], for which the IC50 in experiment [1] was less than 15 nM; in experiment [2] it was more than 50 nM.

As to `CC(C)c1ccc(N2CC(Cn3ccnn3)C2)c2cnc(Nc3ccnc(N4CC[C@](C)(O)[C@H](F)C4)n3)cc12` [Example 40, (3R,4S)-1-(4-((8-(3-((1H-1,2,3-triazol-1-yl)methyl)azetidin-1-yl)-5-isopropylisoquinolin-3-yl)amino)pyrimidin-2-yl)-3-fluoro-4-methylpiperidin-4-ol], the IC50 in experiment [1] is less than 15 nM; in experiment [2], 20 to 30 nM.

On to `CO[C@@H]1CCN(c2nccc(Nc3cc4c(C(C)C)cnc(N5CCC56CN(C)C6)c4cn3)n2)C[C@@H]1F` [Example 41, N-(2-((3S,4R)-3-fluoro-4-methoxypiperidin-1-yl)pyrimidin-4-yl)-5-isopropyl-8-(6-methyl-1,6-diazaspiro[3.3]heptan-1-yl)-2,7-naphthyridin-3-amine], for which the IC50 in experiment [1] was less than 15 nM; in experiment [2] it was 30 to 50 nM.

For the molecule `CO[C@H]1CCN(c2nccc(Nc3cc4c(C(C)C)cnc(N5CCC56CN(C)C6)c4cn3)n2)C[C@H]1F` [Example 42, N-(2-((3R,4S)-3-fluoro-4-methoxypiperidin-1-yl)pyrimidin-4-yl)-5-isopropyl-8-(6-methyl-1,6-diazaspiro[3.3]heptan-1-yl)-2,7-naphthyridin-3-amine], the IC50 in experiment [1] was 20 to 30 nM; in experiment [2], more than 50 nM.

For the molecule `CO[C@H]1CCN(c2nccc(Nc3cc4c(C(C)C)cnc(N5CC(O)C5)c4cn3)n2)C[C@H]1F` [Example 44, 1-(6-((2-((3R,4S)-3-fluoro-4-methoxypiperidin-1-yl)pyrimidin-4-yl)amino)-4-isopropyl-2,7-naphthyridin-1-yl)azetidin-3-ol], the values for the IC50 in experiment [1] and in experiment [2] were less than 15 nM and 20 to 30 nM, respectively.

For the molecule `CC(C)c1cnc(N2CCCC2)c2cnc(Nc3ccnc(N4CC[C@@H](O)[C@@](C)(F)C4)n3)cc12` [Example 45, (3S,4R)-3-fluoro-1-(4-((5-isopropyl-8-(pyrrolidin-1-yl)-2,7-naphthyridin-3-yl)amino)pyrimidin-2-yl)-3-methylpiperidin-4-ol], the IC50 was 20 to 30 nM in experiment [1] and more than 50 nM in experiment [2].

Take `CC(C)c1cnc(N2CCC2)c2cnc(Nc3ccnc(N4CC[C@@H](O)[C@@](C)(F)C4)n3)cc12` [Example 46, (3S,4R)-1-(4-((8-(azetidin-1-yl)-5-isopropyl-2,7-naphthyridin-3-yl)amino)pyrimidin-2-yl)-3-fluoro-3-methylpiperidin-4-ol]: the figures for the 50% inhibitory concentration (IC50) in experiment [1] and in experiment [2] were less than 15 nM and 20 to 30 nM, respectively.

In the case of `CC(C)c1cnc(N2CC(F)C2)c2cnc(Nc3ccnc(N4CC[C@@H](O)[C@@](C)(F)C4)n3)cc12` [Example 47, (3S,4R)-3-fluoro-1-(4-((8-(3-fluoroazetidin-1-yl)-5-isopropyl-2,7-naphthyridin-3-yl)amino)pyrimidin-2-yl)-3-methylpiperidin-4-ol], the values for the IC50 in experiment [1] and in experiment [2] were less than 15 nM and 20 to 30 nM, respectively.

On to `CC(C)c1cnc(N2CC[C@H]2CN(C)C)c2cnc(Nc3ccnc(N4CC[C@@H](O)[C@@](C)(F)C4)n3)cc12` [Example 48, (3S,4R)-1-(4-((8-((S)-2-((dimethylamino)methyl)azetidin-1-yl)-5-isopropyl-2,7-naphthyridin-3-yl)amino)pyrimidin-2-yl)-3-fluoro-3-methylpiperidin-4-ol trifluoroacetate], for which the IC50 in experiment [1] is less than 15 nM; in experiment [2], 10 to 20 nM.

Regarding `CC(C)c1ncc(N2CC(F)C2)c2cnc(Nc3ccnc(N4CC[C@@H](O)[C@@](C)(F)C4)n3)cc12` [Example 49, (3S,4R)-3-fluoro-1-(4-((8-(3-fluoroazetidin-1-yl)-5-isopropyl-2,6-naphthyridin-3-yl)amino)pyrimidin-2-yl)-3-methylpiperidin-4-ol], the IC50 in experiment [1] lay in the range of 15 to 20 nM; in experiment [2] it was 30 to 50 nM.

Turning to `CC(C)c1cnc(N2CC(C)(O)C2)c2cnc(Nc3ccnc(N4CC[C@@H](O)[C@@](C)(F)C4)n3)cc12` [Example 50, (3S,4R)-3-fluoro-1-(4-((8-(3-hydroxy-3-methylazetidin-1-yl)-5-isopropyl-2,7-naphthyridin-3-yl)amino)pyrimidin-2-yl)-3-methylpiperidin-4-ol], the 50% inhibitory concentration (IC50) in experiment [1] is 20 to 30 nM; in experiment [2], more than 50 nM.

For the molecule `COC1CN(c2ncc(C(C)C)c3cc(Nc4ccnc(N5CC[C@@H](O)[C@@](C)(F)C5)n4)ncc23)C1` [Example 51, (3S,4R)-3-fluoro-1-(4-((5-isopropyl-8-(3-methoxyazetidin-1-yl)-2,7-naphthyridin-3-yl)amino)pyrimidin-2-yl)-3-methylpiperidin-4-ol], the half-maximal inhibitory concentration (IC50) was less than 15 nM in experiment [1] and 20 to 30 nM in experiment [2].

With `CC(C)c1cnc(N2CC[C@H]2CO)c2cnc(Nc3ccnc(N4CC[C@@H](O)[C@@](C)(F)C4)n3)cc12` [Example 52, (3S,4R)-3-fluoro-1-(4-((8-((S)-2-(hydroxymethyl)azetidin-1-yl)-5-isopropyl-2,7-naphthyridin-3-yl)amino)pyrimidin-2-yl)-3-methylpiperidin-4-ol], the half-inhibitory concentration (IC50) in experiment [1] is less than 15 nM; in experiment [2], less than 10 nM.

In the case of `CC(C)c1cnc(N2CCC23COC3)c2cnc(Nc3ccnc(N4CC[C@@H](O)[C@@](C)(F)C4)n3)cc12` [Example 53, (3S,4R)-3-fluoro-1-(4-((5-isopropyl-8-(6-oxa-1-azaspiro[3.3]heptan-1-yl)-2,7-naphthyridin-3-yl)amino)pyrimidin-2-yl)-3-methylpiperidin-4-ol], the IC50 in experiment [1] is less than 15 nM; in experiment [2] it was 20 to 30 nM.

For `CC(C)c1cnc(N2CC3(CCO3)C2)c2cnc(Nc3ccnc(N4CC[C@@H](O)[C@@](C)(F)C4)n3)cc12` [Example 54, (3S,4R)-3-fluoro-1-(4-((5-isopropyl-8-(1-oxa-6-azaspiro[3.3]heptan-6-yl)-2,7-naphthyridin-3-yl)amino)pyrimidin-2-yl)-3-methylpiperidin-4-ol], the concentration for half-maximal inhibition (IC50) in experiment [1] was 15 to 20 nM; in experiment [2], 20 to 30 nM.

For the molecule `CC(C)c1cnc(N2CC(C(F)F)C2)c2cnc(Nc3ccnc(N4CC[C@@H](O)[C@@](C)(F)C4)n3)cc12` [Example 55, (3S,4R)-1-(4-((8-(3-(difluoromethyl)azetidin-1-yl)-5-isopropyl-2,7-naphthyridin-3-yl)amino)pyrimidin-2-yl)-3-fluoro-3-methylpiperidin-4-ol], the IC50 in experiment [1] is less than 15 nM; in experiment [2], 10 to 20 nM.
